Reference: US20240293548A1, “CONTACT LENS FOR PHOTODYNAMIC INACTIVATION OF GERMS, PRODUCT AND METHOD OF TREATING FUNGAL KERATITIS BY APPLYING THE SAME” (NATIONAL CHENG KUNG UNIVERSITY, priority 2023, published 2024)

Assays:
C. albicans = assay: Antimicrobial efficacy of the photoactive solution after adding a low concentration of hydrogen peroxide; type: cell-based, Candida albicans; conditions: for C. albicans amount compared to the NC group: no light exposure
Description: The negative control (referred to as NC) group was the fungal solution of C. albicans not being treated with RB, hydrogen peroxide, and light exposure. The light control (referred to as LC) group was the fungal solution of C. albicans exposed to light but contained neither RB nor hydrogen peroxide. […] The hydrogen peroxide (referred to as H2O2) group was the fungal solution of C. albicans treated with 0.03 wt % hydrogen peroxide without RB for 15 minutes but not subjected to the light exposure treatment. The photodynamic therapy (referred to as PDT) group was the fungal solution of C. albicans treated with 0.1 wt % RB without hydrogen peroxide for 15 minutes and subjected to 35 J/cm^2 green light exposure treatment. The photodynamic therapy with 0.03 wt hydrogen peroxide (referred to as H2O2+PDT) group was the fungal solution of C. albicans treated with 0.1 wt % RB and 0.03 wt % hydrogen peroxide for 15 minutes and subjected to the 35 J/cm^2 green light exposure treatment. FIG. 6 was a bar chart illustrating the amount of C. albicans after different treatments in the fungal solution according to some embodiments of the present invention. The x-axis represented the NC group, the LC group, the DC group, the H2O2 group, the PDT group, and the H2O2+PDT group from left to right. The y-axis represented the C. albicans amount (unit: log CFU/mL).

[1] = system: Candida albicans (drug-resistant strain, BCRC 21538 / ATCC 10231); assay: Antimicrobial efficacy of rose bengal-PDT (colony counting after green light exposure); type: cell-based; conditions: 0.2 wt % RB; for log reduction value of the amounts of C. albicans: compared to without light exposure; for antimicrobial rate: equivalent of log reduction
Description: A drug-resistant strain of Candida albicans was bought from the Bioresource Collection and Research Center (BCRC), Food Industry Research and Development Institute (FIRDI), 331, Shipin Rd., East Dist., Hsinchu City, Taiwan (postcode: 300193) under the accession number of BCRC 21538. The same strain could also be bought from American Type Culture Collection (ATCC), VA, USA under an accession number of ATCC 10231.
The Candida albicans was grown and prepared in a fungal solution with an amount of 1×10^7 CFU/mL and mixed with an equal volume of rose bengal (RB) solution (i.e., the mixed volume ratio was 1:1) to obtain a mixed solution containing 0.2 wt % RB (0.2 wt % RB group).
A portion of the mixed solution containing 0.2 wt % RB and fungi was exposed to green light of 10 J/cm^2 or 20 J/cm^2 at 25±1° C., and another portion of the mixed solution was not treated with light exposure. The light source of the aforementioned green light was a commercial green light LED with an emission peak at the wavelength of 520 nm. […] Noted that three drops represented three repeats. […] In the control group, the fungal solution was mixed with an equal volume of PBS.

SMILES | C. albicans amount compared to the NC group (C. albicans; H2O2 group: 0.03 wt % hydrogen peroxide without RB for 15 minutes) | log reduction value of the amounts of C. albicans ([1]; 10 J/cm^2 green light (520 nm)) | antimicrobial rate ([1]; 10 J/cm^2 green light) [%] | log reduction value of the amounts of C. albicans ([1]; 20 J/cm^2 green light (520 nm)) | antimicrobial rate ([1]; 20 J/cm^2 green light) [%] | C. albicans amount compared to the NC group (C. albicans; DC group: 0.1 wt % RB for 15 minutes) | log reduction value of the C. albicans amount (C. albicans; PDT group: 0.1 wt % RB without hydrogen peroxide, 15 minutes, 35 J/cm^2 green light, compared to NC group)
OO [hydrogen peroxide] | no significant difference | – | – | – | – | – | –
O=C1OC2(c3cc(I)c(O)c(I)c3Oc3c2cc(I)c(O)c3I)c2c(Cl)c(Cl)c(Cl)c(Cl)c21 [RB, rose bengal] | – | 1 | 90 | 6 | 99.9999 | no significant difference | 2.5
